Assay results published in patent US20240118263A1, “TARGET FOR SCREENING ANTI-TUMOR DRUG, USE THEREOF AND SCREENING METHOD THEREFOR” (SHENYANG FUYANG PHARMACEUTICAL TECHNOLOGY CO., LTD., priority 2019, published 2024).
Entries after “also recorded” stand apart in the source; their conditions may differ.

Experiments:
[1] = system: LN229-luc intracranial tumor; assay: Intracranial LN229-luc glioblastoma xenograft mouse model; assay type: in vivo, NSG mice; conditions: ISP I 66 mg/kg intraperitoneally daily, vs control group
Excerpt: The inventors first assessed ISP I's anti-tumor activity in an intracranial mouse model (FIG. 13A). NSG mice were inoculated with 1×10^5 LN229-luc cells in the right-frontal cortex. After 7 days, intracranial tumor growth was confirmed via noninvasive in vivo bioluminescence imaging and mice were randomized into ISP I or DMSO (control) treatment groups.
Mice experiments were approved by the National Institute of Neurological Disorders and Stroke (NINDS) and National Cancer Institute (NCI) Animal Use and Care Committees. For intracranial xenografts establishment, NOD-Prkde^scidIl2rg^tmiWjl (NSG) mice (6-8 weeks old from the NCI-Frederick animal facility) were inoculated intracranially with 100,000 LN229-luc cells suspended in 2 μL Hank's Balanced Salt Solution (HBSS), a product of Crystalgen (Commack, NY USA). After one week, luciferin signals were detected to confirm the survival of tumor cells in mice. The mice were assigned to the indicated groups according to the signal intensity, in order to keep the baseline balanced. ISP I was injected intraperitoneally daily at a dose of 66 mg/kg body weight for 24 days. The mice in control group were injected with the same volume of corn oil or saline. The viability of tumors was monitored every four days. […]

[2] = molecular target: SELH protein expression (Homo sapiens (Human), UniProt Q8IZQ5); assay: Western blot of SELH protein in ISP I-treated cells; assay type: cell-based
Sequence of SELH protein expression (Q8IZQ5 whole entry): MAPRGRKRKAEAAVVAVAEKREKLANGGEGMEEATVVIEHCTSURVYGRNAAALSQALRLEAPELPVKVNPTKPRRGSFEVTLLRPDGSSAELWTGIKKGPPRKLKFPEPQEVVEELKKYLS
Excerpt: (§4) A cycloheximide (CHX) chase assay was completed to assess ISP I's effect on SELH protein degradation.

[3] = molecular target: SELH protein degradation (Homo sapiens (Human), UniProt Q8IZQ5)
Sequence of SELH protein degradation (Q8IZQ5 whole entry): as above
Excerpt: as §4

[4] = system: IOMM xenograft; assay: IOMM meningioma subcutaneous xenograft model; assay type: in vivo, Nude mice; conditions: 35 mg/kg intraperitoneally daily, vs control
Method: (§1) For subcutaneous xenografts, NSG mice (6-8 weeks old) from the NCI-Frederick animal facility and Jackson Lab (Bar Harbor, ME USA) were injected with 5×10^6 to 1×10^7 cells subcutaneously in the flank. One week later, the tumor-bearing mice were randomly assigned to different groups and made the tumor volume baseline equivalent and treated with normal saline or Zenomycin (35 mg/kg) everyday intraperitoneally. Tumors were measured using a caliper, and volume was calculated.

[5] = system: 786-O xenograft; assay: 786-O subcutaneous xenograft model; assay type: in vivo, NSG mice; conditions: 35 mg/kg intraperitoneally daily, vs control
Method: as §1

[6] = system: B16 melanoma lung metastasis; assay: Metastatic murine melanoma (B16) lung metastasis model; assay type: in vivo, C57BL/6 mice; conditions: ISP I 35 mg/kg intraperitoneally daily, 12 days, vs saline
Method: In addition to the aforementioned xenograft tumor models, the anti-tumor activity of ISP I was assessed in a metastatic murine melanoma (B16) model. Mice were intravenously injected with 2×10^5 B16 cells and randomized into the following three treatment groups: ISP I (35 mg/kg), Carrimycin (56 mg/kg), Saline (control) (FIG. 13D).
For metastasis study, C57BL/6 mice (4-5 weeks) from Charles River Laboratories (Wilmington, MA USA) were assigned randomly to one or another of two groups, 9 animals per group. B16-F10 mouse skin melanoma cells (2×10^5) were resuspended in 100 μl saline and injected through tail vein. After treatment with ISP I at 35 mg/kg for 12 days, all mice were euthanized, and the lungs were examined for counting black metastasis dots.

[7] = molecular target: SELH (Homo sapiens (Human), UniProt Q8IZQ5); assay: Thermo-stability assay (CETSA) in LN229 and 786-O cell lines; assay type: binding; conditions: western blot, vs DMSO
Sequence of SELH (Q8IZQ5 whole entry): as above
Excerpt: Next, the inventors used a thermo-stability assay to confirm SELH was targeted by ISP I in LN229 and 786-O cell lines. The principle of the assay is based on altered protein thermal stabilization/destabilization due to ligand binding in living cells. […] (FIG. 11B and FIG. 12A). To verify further the specificity of ISP I's targeting of SELH, the inventors designed a surface plasmon resonance assay to assess the interaction of ISP I with SELH synthesized in bacteria.
CETSA experiments were performed to determine the ISP I-related ligand induced shifts. Intact and live cells in a 10-cm dish were harvested, washed and resuspended in PBS with protease inhibitor cocktail. Protein of the cells was extracted by freeze-thaw more than three times, using liquid nitrogen. The supernatant was centrifuged at 20,000 g for 20 min at 4° C. Then the samples were aliquoted to several groups incubated with different concentrations of ISP I for 1 hour. After that, samples were aliquoted into PCR tubes and thereafter heated at gradient temperature ranging from 40° C. to 80° C. for 3 min. Then the samples were centrifuged again and resolved using 4-12% SDS-PAGE followed by western blot experiments.

[8] = system: 786-O and RCC4 cells; assay: Cell cycle analysis by flow cytometry, RCC cells; assay type: cell-based
Method: (§2) Cell viability was assessed similarly via CKK8 analysis. […] (FIG. 10C, D).
For monitoring cell-cycle arrest of ISP I-treated cells, Click-iT EdU Flow Cytometry Assay Kits were used, a product of ThermoFisher Scientific. Cells were co-cultured with EdU at a concentration of 10 μM for 1 hour. After fixation and permeabilization, EdU-positive cells were labeled with Alexa Fluor 647 fluorescein. DAPI also was used for measuring total DNA content to identify differences in cell cycle phases. Data were collected by means of a BD LSRFortessa flow cytometer using FlowJo software. Cells that are positive with EdU and DAPI were in S-Phase of the cell cycle.

[9] = Veterinary histopathology review of major organs and clinical chemistry; assay type: in vivo; conditions: 24 days after treatment
[10] = system: 786-O and RCC4 cells; assay: Annexin V apoptosis analysis, RCC cells; assay type: cell-based
Method: as §2
(§3) Cell apoptosis and cell cycle: Cells (2×10^5) were plated in 6-well plates and treated with different concentrations of ISP I. Then the cells were harvested and washed three times with PBS. Cells were resuspended in 100 μl binding buffer and were incubated with 5 μl APC-conjugated Annexin V working solution, a product of BD bioscience (Franklin Lakes, NJ USA), and 1 μl propidium iodide (PI), a product of Invitrogen, for 15 min at room temperature with protection from light. Data acquisition and quantification were processed with BD LSRFortessa flow cytometer, using FlowJo software (Ashland, OR USA).

[11] = system: LN229 and U251 cells; assay: Annexin V apoptosis flow cytometry, glioblastoma cells; assay type: cell-based
Method: as §3

CO[C@@H]1[C@@H](O[C@@H]2O[C@H](C)[C@@H](O[C@H]3C[C@@](C)(O)[C@@H](OC(=O)CC(C)C)[C@H](C)O3)[C@H](N(C)C)[C@H]2O)[C@@H](CC=O)C[C@@H](C)[C@@H](O[C@H]2CC[C@H](N(C)C)[C@@H](C)O2)/C=C/C=C/C[C@@H](C)OC(=O)C[C@H]1O [Isovalerylspiramycin I, 4″-isovalerylspiramycin I]
tumor growth by bioluminescence imaging [1]: significantly reduced tumor growth; also recorded: complete response
SELH protein expression ([2]; LN229 cells, different concentrations of ISP I): reduced SELH protein expression in LN229 cells in a dose-dependent manner
SELH levels in glioblastoma cell lines ([2]; T98G, U118, LN229, U251, 10 μg/mL of ISP I for 24 hours): decreased SELH levels
SELH protein half-life [3]: reduced the SELH protein half-life
tumor size and weight, IOMM xenograft [4]: significantly reduced tumor size and weight
tumor size and weight, 786-O xenograft [5]: significantly reduced tumor size and weight
lung tumor nodules [6]: significantly reduced lung tumor nodules
thermal protection of SELH [7]: protective effect of ISP I on SELH was present over a range of increasing temperatures
cell-cycle arrest [8]: induced cell-cycle arrest in the G0/G1 phase
toxicities in major organs and clinical chemistry [9]: no hematologic, renal, pancreatic or liver toxicities
apoptosis (Annexin V) [10]: dose-dependent apoptosis
apoptosis (Annexin V stain) [11]: dose-dependent apoptosis
